Laboratory results reported in patent publication US20180325914A1, “INCREASING STORAGE OF VITAMIN A, VITAMIN D AND/OR LIPIDS” (Salk Institute for Biological Studies, priority 2014, published 2018).

Columns and labels:
primary HSCs [1] = test: Cell proliferation assay (BrdU), primary HSCs; assay type: cell-based, mouse; conditions: JQ1 500 nM
Text: BrdU-positive cells were counted under fluorescent microscope (Olympus, IX51).

primary HSCs [2] = test: Cell viability assay (CellTiter Glo), primary HSCs; assay type: cell-based, mouse; conditions: dose-dependent manner
Protocol: Primary HSCs or LX-2 cells were seeded onto 96-well tissue culture plates.

C57BL/6J mice [3] = test: CCl4 model of liver fibrosis, therapeutic study; assay type: in vivo, mouse; conditions: JQ1 50 mg/kg IP
Protocol: (§1) The animals were terminated 72 hours after the final CCl4 injection and whole livers were collected for histological, cytological, biochemical and molecular analyses.
(§2) 5 μm sections of formalin-fixed liver were stained following standard hematoxylin-eosin (H&E) and Sirius Red methods and reviewed by a pathologist who was blinded to the experimental conditions. Fibrosis was scored using the Ishak modified histological activity index (HAI) scoring system. Liver fibrosis was also quantified using Image J software on 10 non-contiguous Sirius Red stained sections. […] fibrosis was quantified using hydroxyproline assay. All images were obtained using a high-resolution Leica DFC420 digital camera mounted on an Olympus microscope equipped with ×4/0.13, ×10/0.30, ×20/0.50 and ×40/0.75 UplanFL N plan objective lenses and processed with the Leica Application Suite. Tissue hydroxyproline content was measured using a kit from Biovision (K555-100).
(§3) Liver samples were deparaffinized and rehydrated in PBS. Following antigen retrieval with the target retrieval solution (Dako, Glostrup, Denmark), endogenous peroxidase activity was blocked by incubation with 0.3% hydrogen peroxide. […]
Therefore, the ability of JQ1 to prevent progression of ongoing liver fibrosis was determined. […]

C57BL/6J mice [4] = test: CCl4 model of liver injury and fibrosis, preventive study; assay type: in vivo, mouse; conditions: JQ1 50 mg/kg IP
Protocol: as §1, §2, §3

[5] = test system: pro-fibrotic gene expression (COL1A1) in LX-2 cells; test: qRT-PCR of pro-fibrotic gene expression in LX-2 cells; conditions: JQ1 500 nM, 16 hr vs DMSO

Cc1sc2c(c1C)C(c1ccc(Cl)cc1)=N[C@@H](CC(=O)OC(C)(C)C)c1nnc(C)n1-2 [JQ1, (S)-tert-butyl 2-(4-(4-chlorophenyl)-2,3,9-trimethyl-6H-thieno[3,2-f][1,2,4]triazolo[4,3-a][1,4]diazepin-6-yl)acetate]
BrdU incorporation into activated HSCs (primary HSCs [1]): significant decrease | anti-proliferative activity against activated HSCs (primary HSCs [2]): significant anti-proliferative activity | progression of liver fibrosis (histological scoring, Sirius red, hydroxyproline, marker gene expression) (C57BL/6J mice [3]; CCl4 three weeks, then CCl4/JQ1 co-treatment for three weeks): blocked the progression | CCl4-induced HSC activation (quantitative Acta2 immunohistochemistry) (C57BL/6J mice [3]; chronic CCl4): dramatically reduced | liver fibrosis and markers of HSC activation (C57BL/6J mice [4]; CCl4/JQ1 co-treated vs CCl4 mice, four weeks, Sirius red, hydroxyproline, Acta2, Ishak score): dramatic reduction | CCl4-induced key fibrotic marker genes in liver (mRNA-Seq) (C57BL/6J mice [4]): significant suppression | repression of COL1A1 [5]: 4.5 fold
